Results reported in patent US12208163B2, “Nanostructured lipid gel, method for preparation and use” (CONSEJO SUPERIOR DE INVESTIGACIONES CIENTÍFICAS, priority 2018, dated 2025).

Columns and labels:
[1] = test system: chorioallantoic membrane of a chicken egg; test: Eye irritation assay (HET-CAM test); settings: for OII (Ocular Irritation Index): calculated from H, V and C times; for Classification: interpretation of OII by Table 2; for Clotting time / Haemorrhage time / Vasoconstriction time: time when change appears, observed for 5 minutes
Excerpt: With the aim of proposing potential uses of the gel in ocular applications, the possible eye irritation of this material was studied by means of a HET-CAM test. The gel formed from HSPC and OA with a molar ratio of 3:1 and a total lipid concentration of 5% was directly applied to the chorioallantoic membrane of a chicken egg due to its similarity to the human cornea. The appearance of vascular lesion or clotting in response to a compound is the basis for using this technique as an indicator of the probability that a substance may harm the mucous membranes, especially the cornea of the human eye, in vitro. In order to execute the method, the egg shell is carefully removed, moistening the membrane with a NaCl solution at 37° C. Next, the NaCl is removed and the white membrane is removed without harming any blood vessel. Next, the gel sample is applied and the appearance of haemorrhage (H), vasoconstriction (V) and/or clotting (C) can be observed for 5 minutes. Lastly, the Ocular Irritation Index (OII) is estimated using the following formula: [formula] H, V and C are the time in seconds when this change appears. If there is no alteration, they are equal to 300. The result obtained from the formula can be interpreted on the basis of Table 2: [table]

[2] = in vitro cutaneous permeation assay on pig skin, fluorescence microscopy; type: in vitro ADME
Method: In order to evaluate the potential of these gels as cutaneous application systems, an in vitro permeation assay was conducted on pig skin and observations were made using fluorescence microscopy. Two gels were formed which were applied to the skin surface. One of them was formed by incorporating a red fluorescent probe (Rhodamine B) in order to observe in which areas of the skin the gel-forming phospholipids are retained. In the other gel, a fluorescent green probe (fluorescein) was added in the aqueous phase with the aim of simulating a possible water-soluble active ingredient incorporated to the gel. The gel was gently applied to the skin and left to permeate overnight at 37° C. in a humid environment. Next, the skin was cut into sections and the cells marked in blue in order to distinguish the different skin layers.

Question: Which “OII (Ocular Irritation Index)” value [1] does the source give for [Na+].[OH-] [NaOH] here?
Answer: Its value is 17.79.

Question: And the Classification [1]?
Answer: Its Classification is “Irritating (9-21)”.

Question: What about the “Clotting time” value [1] of the same compound?
Answer: Its value is 20 s.

Question: And the “Haemorrhage time” value [1]?
Answer: Its value is 28 s.

Question: And the “Vasoconstriction time” value [1]?
Answer: The value was 13 s.

Question: Which results are given for CCCCCCCCCCCCOS(=O)(=O)[O-].[Na+] [1% SDS, SDS]?
Answer: OII (Ocular Irritation Index) [1]: 3.23; Classification [1]: Mildly; Clotting time [1]: 0 s; Haemorrhage time [1]: 110 s; Vasoconstriction time [1]: 0 s

Question: Which “skin permeation of fluorescein from aqueous solution” value ([2]; control, aqueous solution with fluorescein without incorporating the gel) does the source give for O=C1OC2(c3ccc(O)cc3Oc3cc(O)ccc32)c2ccccc21 [fluorescein] here?
Answer: Its value is “only slightly incorporated in the stratum corneum”.

Question: And the “skin permeation of fluorescein dissolved in the aqueous phase of the gel” value ([2]; fluorescein in gel, overnight at 37° C., FIG. 6)?
Answer: The value was “capable of permeating the skin, covering the entire stratum corneum and epidermis”.
